Experimental data taken from patent US20260272907A1, “Therapeutic Tyrosine Kinase Inhibitors for Multiple Sclerosis” (Principia Biopharma Inc., priority 2022, published 2026).

What was measured:
[1] = test system: patients with relapsing multiple sclerosis; test: Long-term safety extension: number of new Gd-enhancing T1-hyperintense lesions (MRI); assay type: in vivo, human; conditions: for Number of new Gd-enhancing lesions, mean±SD: LTS W96
Experimental: (§1) In the current open-label extension Part B, all patients receive 60 mg/day. MRI outcomes include numbers of new Gd-enhancing and new/enlarging T2 lesions, T2 lesion volume change from baseline, slowly evolving lesions (SEL), and paramagnetic rim lesions (PRL).
(§2) The Week 0 value is from the last MRI obtained in the dose-finding study if performed within 6 weeks prior to Day 1 of the long-term safety study For some patients the Week 0 value began after a gap period ranging from 0-21 weeks. For patients where the gap period was 0 weeks, the Week 0 value began immediately after the completion of Week 16 of the dose-finding study. For patients where the gap period was greater than 6 weeks a new MRI was obtained prior to Day 1 of the long-term safety study.
(§3) If from Week 16 of the dose-finding study (Cohort 2), it is also included in Week 12. If from Week 16 of the dose-finding study (Cohort 1), it is after 4 weeks placebo run out.

[2] = test system: patients with relapsing multiple sclerosis; test: Phase 2b dose-finding study: number of new or enlarging T2 lesions by brain MRI; conditions: for Number of new/enlarging T2 lesions, mean (SD): Cohort 1 (all doses)
Experimental: (§4) New T1 Gd-enhancing hyperintense and new and enlarging T2 lesions are evaluated at each visit as per the SoA (Table 1), comparing lesion count to that from the previous MRI scan. Unless specified otherwise, the baseline brain MRI is used as the reference to assess all MRI-derived endpoints. The baseline MRI is the last MRI performed before the randomization visit. Standardized endpoint evaluation is assured by central review of brain MRI scans. Blinded central review is performed for all MRI-derived endpoints. Magnetic resonance imaging reviewers are blinded to treatment assignments and to other participant data.
For the number of new or enlarging T2 lesions, descriptive summary statistics over time (4, 8, 12, and 16 weeks) is provided for each of the 4 BTK inhibitor doses. Further, a similar MCP-Mod approach is explored if it is deemed reasonable to extrapolate the Week 4 data from Cohort 2 to the Week 12 placebo data.
For each secondary endpoint, a similar negative binomial model and the MCP-Mod procedure were used. As it is reasonable to assume a constant rate of lesion formation over 12 weeks under placebo treatment, the same approach as that utilized for the primary endpoint was used, i.e., using the Week 4 data in Cohort 2 as the Week 12 placebo data while accounting for within-participant correlation. Descriptive summary statistics over time were provided for each of the 4 BTK inhibitor dose groups.
Magnetic resonance imaging (MRI) scans were obtained at screening and every 4 weeks for 16 weeks.

CD19+ B-cell = test: Phase 2b trial: plasma CD19+ B-cell count in the placebo run-out cohort; assay type: in vivo, human; conditions: Cohort 1
Experimental: OUTCOMES: The outcomes evaluated in this example include measuring the incidence of relapse during 4-week placebo run-in and run-out, the number of new Gd-enhancing T1 lesions detected with magnetic resonance imaging (MRI) at Weeks 4, 8 and 16, the number of new or enlarging T2 lesions measured at Weeks 4, 8 and 16, and the plasma CD19+B-cell count measured in the placebo run-out cohort at baseline, 1 hour after the first dose, then at Week 12 and Week 16 (FIG. 3).

CYP2C8 = biological target: T1, CYP2C8 (Homo sapiens, UniProt P10632); test: Preclinical drug metabolism studies: CYP2C8; assay type: in vitro ADME
T1 sequence (P10632 1-490): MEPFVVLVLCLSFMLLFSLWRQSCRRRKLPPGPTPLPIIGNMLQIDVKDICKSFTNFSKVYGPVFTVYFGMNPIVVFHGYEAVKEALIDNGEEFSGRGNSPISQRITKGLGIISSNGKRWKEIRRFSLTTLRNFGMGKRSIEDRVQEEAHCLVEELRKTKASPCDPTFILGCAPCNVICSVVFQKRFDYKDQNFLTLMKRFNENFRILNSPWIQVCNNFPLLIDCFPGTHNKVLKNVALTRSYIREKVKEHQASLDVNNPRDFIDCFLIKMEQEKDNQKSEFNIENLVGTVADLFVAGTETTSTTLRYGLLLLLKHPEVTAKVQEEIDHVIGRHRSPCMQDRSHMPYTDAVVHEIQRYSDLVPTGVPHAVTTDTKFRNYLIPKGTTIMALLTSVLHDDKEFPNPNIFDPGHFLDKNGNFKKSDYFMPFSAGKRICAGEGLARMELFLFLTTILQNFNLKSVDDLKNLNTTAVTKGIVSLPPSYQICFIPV
Description: See Table 12 for the list of drugs not to be used.

[3] = test system: patients with relapsing multiple sclerosis; test: Phase 2b dose-finding study: number of new Gd-enhancing T1-hyperintense lesions by brain MRI; conditions: for New Gd-enhancing T1-hyperintense lesion count, observed mean (SD): 12 weeks of treatment, Cohorts 1 and 2 pooled; for Patients with no new Gd-enhancing T1 lesions / Gd-enhancing T1 lesion count, mean (SD): Cohort 1 (all doses); for Gd+ lesion count, mean (SD): Cohort 1, 60 mg/day
Experimental: Cranial (brain) MRI with and without Gd contrast is performed. Basic MRIs are performed for all participants at all study sites and consist of T2- and T1-weighted sequences without and with Gd contrast.
as §4
The first step of this procedure tests for an efficacy signal (compared to the null hypothesis of a flat, no dose-response curve) in a procedure that controls the type 1 error. […] The second step is the Dose estimation of the dose-response curve, provided that an efficacy signal is established in the first step.
The 4-week post-randomization placebo data from Cohort 2 (i.e., Week 4 data from Cohort 2) is utilized as the placebo data at Week 12 in analysis, under the assumption of a constant rate of Gd-enhancing T1-hyperintense lesion formation if participants would be receiving placebo over 12 weeks. Participants in Cohort 2 contribute to the placebo data (at Week 4) as well as the data for 4 BTK inhibitor doses (at Week 16). […] If step 1 yields significant results, the best fitting model from the 6 predefined candidate models is chosen using the generalized Akaike information criterion (AIC).
The first step of this procedure tested for an efficacy signal (compared to the null hypothesis of a flat, no dose-response curve) in a procedure that controls the type 1 error.
The MRI assessments were excluded from the analyses if the participant was receiving systemic corticosteroids within the 30 days prior to the MRI assessment date. The 4-week post-randomization placebo data from Cohort 2 (i.e., Week 4 data from Cohort 2) was utilized as the placebo data at Week 12 in analysis under the assumption of a constant rate of Gd-enhancing T1-hyperintense lesion formation if participants were to receive placebo over 12 weeks. Participants in Cohort 2 contributed to the placebo data (at Week 4) as well as the data for 4 BTK inhibitor doses (at Week 16). The 4-week placebo run-out data from Cohort 1 was not included in the analysis. […] Test statistics and adjusted p-values were provided for all 6 candidate models.

[4] = test system: patients with relapsing multiple sclerosis; test: Long-term safety extension: number of new T1 non-enhancing (hypointense) lesions (MRI); assay type: in vivo, human
Experimental: as §1, §2, §3

patients with RMS = test: Ongoing tolebrutinib Phase 3 trials: drug-induced liver injury; assay type: in vivo, human; conditions: ongoing Phase 3 trials
Description: Drug-induced liver injury has been identified in the ongoing tolebrutinib Phase 3 trials. The reported events occurred between months 2 to 3 after the start of tolebrutinib administration, and the elevation of liver enzymes appears reversible after tolebrutinib discontinuation. Thus, there is a need to mitigate the risk of hepatic injury and provide safe treatment for patients with RMS.

[5] = 5 mg daily, after 12 weeks of treatment
[6] = 15 mg daily, after 12 weeks of treatment
[7] = 30 mg daily, after 12 weeks of treatment
[8] = 60 mg daily, after 12 weeks of treatment
[9] = after 4 weeks of placebo run-out

C=CC(=O)N1CCC[C@@H](n2c(=O)n(-c3ccc(Oc4ccccc4)cc3)c3c(N)nccc32)C1 [the BTK inhibitor, (R)-1-(1-acryloylpiperidin-3-yl)-4-amino-3-(4-phenoxyphenyl)-1H-imidazo[4,5-c]pyridin-2(3H)-one]
Number of new GD-enhancing T1-Hyperintense lesions, Mean (SD) ([1]; 5/60 mg, Week 0): 1.13 (2.66) | Number of new GD-enhancing T1-Hyperintense lesions, Median ([1]; 5/60 mg, Week 0): 0.00 | Number of new GD-enhancing T1-Hyperintense lesions, Mean (SD) ([1]; 5/60 mg, Week 12): 1.03 (2.57) | Number of new GD-enhancing T1-Hyperintense lesions, Median ([1]; 5/60 mg, Week 12): 0.00 | Number of new Gd-enhancing lesions, mean±SD ([1]; 5/60-mg arm): 0.85±2.5 | Number of new GD-enhancing T1-Hyperintense lesions, Mean (SD) ([1]; 15/60 mg, Week 0): 1.00 (1.88) | Number of new GD-enhancing T1-Hyperintense lesions, Median ([1]; 15/60 mg, Week 0): 0.00 | Number of new GD-enhancing T1-Hyperintense lesions, Mean (SD) ([1]; 15/60 mg, Week 12): 0.80 (1.49) | Number of new GD-enhancing T1-Hyperintense lesions, Median ([1]; 15/60 mg, Week 12): 0.00 | Number of new Gd-enhancing lesions, mean±SD ([1]; 15/60-mg arm): 0.41±0.91 | Number of new GD-enhancing T1-Hyperintense lesions, Mean (SD) ([1]; 30/60 mg, Week 0): 1.68 (4.29) | Number of new GD-enhancing T1-Hyperintense lesions, Median ([1]; 30/60 mg, Week 0): 0.00 | Number of new GD-enhancing T1-Hyperintense lesions, Mean (SD) ([1]; 30/60 mg, Week 12): 0.78 (3.36) | Number of new GD-enhancing T1-Hyperintense lesions, Median ([1]; 30/60 mg, Week 12): 0.00 | Number of new Gd-enhancing lesions, mean±SD ([1]; 30/60-mg arm): 0.90±2.16 | Number of new GD-enhancing T1-Hyperintense lesions, Mean (SD) ([1]; 60/60 mg, Week 0): 0.35 (0.61) | Number of new GD-enhancing T1-Hyperintense lesions, Median ([1]; 60/60 mg, Week 0): 0.00 | Number of new GD-enhancing T1-Hyperintense lesions, Mean (SD) ([1]; 60/60 mg, Week 12): 0.13 (0.43) | Number of new GD-enhancing T1-Hyperintense lesions, Median ([1]; 60/60 mg, Week 12): 0.00 | Number of new Gd-enhancing lesions, mean±SD ([1]; 60/60-mg arm): 0.31±0.66 | Number of new GD-enhancing T1-Hyperintense lesions, Mean (SD) ([1]; All (N = 125), Week 0): 1.04 (2.72) | Number of new GD-enhancing T1-Hyperintense lesions, Median ([1]; All (N = 125), Week 0): 0.00 | Number of new GD-enhancing T1-Hyperintense lesions, Mean (SD) ([1]; All (N = 125), Week 12): 0.69 (2.27) | Number of new GD-enhancing T1-Hyperintense lesions, Median ([1]; All (N = 125), Week 12): 0.00 | New or enlarging T2 lesion count, Mean [2, 5]: 1.90 | New or enlarging T2 lesion count, Median [2, 5]: 0.00 | Count of new and enlarging T2 lesions, observed mean (SD) ([2]; 5 mg once daily, end of 12 weeks of treatment): 1.90 (3.97) | New or enlarging T2 lesion count, Mean [2, 6]: 1.32 | New or enlarging T2 lesion count, Median [2, 6]: 1.00 | Count of new and enlarging T2 lesions, observed mean (SD) ([2]; 15 mg once daily, end of 12 weeks of treatment): 1.32 (1.83) | New or enlarging T2 lesion count, Mean [2, 7]: 1.30 | New or enlarging T2 lesion count, Median [2, 7]: 0.00 | Count of new and enlarging T2 lesions, observed mean (SD) ([2]; 30 mg once daily, end of 12 weeks of treatment): 1.30 (4.90) | New or enlarging T2 lesion count, Mean [2, 8]: 0.23 | New or enlarging T2 lesion count, Median [2, 8]: 0.00 | Patients with >=3 new or enlarging T2 lesions [2, 8]: 0 n | Count of new and enlarging T2 lesions, observed mean (SD) ([2]; 60 mg once daily, end of 12 weeks of treatment): 0.23 (0.62) | Adjusted relative reduction in count of new and enlarging T2 lesions relative to placebo ([2]; 60 mg, 12 weeks, 95% CI [68.39%, 96.41%], nominal p=0.0001): 89.34% | Participants with no new and enlarging T2 lesions ([2]; 60 mg, end of 12 weeks of treatment, 27 of 31 with evaluable MRI): 87.1% | Number of new/enlarging T2 lesions, mean (SD) ([2]; Week 12): 0.58 (1.27) | Number of new/enlarging T2 lesions, mean (SD) [2, 9]: 0.95 (2.72) | Number of B cells in the peripheral circulation after placebo run-out (CD19+ B-cell; after the 4-week placebo run-out period): returned towards baseline level | Number of B cells in the peripheral circulation after the first dose (CD19+ B-cell; within 1 hour after the first dose): increased | Substrate of CYP2C8 isoenzyme (CYP2C8): substrate | New Gd-enhancing T1-hyperintense lesion count, Mean [3, 5]: 1.39 | New Gd-enhancing T1-hyperintense lesion count, Median [3, 5]: 0.00 | New Gd-enhancing T1-hyperintense lesion count, observed mean (SD) ([3]; 5 mg once daily): 1.39 (3.20) | New Gd-enhancing T1-hyperintense lesion count, Mean [3, 6]: 0.77 | New Gd-enhancing T1-hyperintense lesion count, Median [3, 6]: 0.00 | New Gd-enhancing T1-hyperintense lesion count, observed mean (SD) ([3]; 15 mg once daily): 0.77 (1.48) | New Gd-enhancing T1-hyperintense lesion count, Mean [3, 7]: 0.76 | New Gd-enhancing T1-hyperintense lesion count, Median [3, 7]: 0.00 | New Gd-enhancing T1-hyperintense lesion count, observed mean (SD) ([3]; 30 mg once daily): 0.76 (3.31) | New Gd-enhancing T1-hyperintense lesion count, Mean [3, 8]: 0.13 | New Gd-enhancing T1-hyperintense lesion count, Median [3, 8]: 0.00 | Patients with >=3 new Gd-enhancing T1-hyperintense lesions [3, 8]: 0 n | New Gd-enhancing T1-hyperintense lesion count, observed mean (SD) ([3]; 60 mg once daily): 0.13 (0.43) | Relative reduction in new Gd-enhancing T1-hyperintense lesions compared with placebo ([3]; 60 mg, 12 weeks, negative binomial regression model adjusted for baseline lesion activity, 95% CI [28.02%, 96.88%], nominal p=0.0178): 85.02% | Participants with no new Gd-enhancing T1-hyperintense lesions ([3]; 60 mg, end of 12 weeks of treatment, 28 of 31 with evaluable MRI): 90.30% | Dose-response for reduction in number of new active Gd-enhancing T1-hyperintense brain lesions ([3]; 5-60 mg once daily, after 12 weeks of treatment, MCP-Mod): dose-response relationship | Patients with no new Gd-enhancing T1 lesions ([3]; 4 weeks after discontinuing tolebrutinib (placebo run-out)): 85.2% | Gd-enhancing T1 lesion count, mean (SD) [3, 9]: 0.44 (1.70) | Gd-enhancing T1 lesion count, mean (SD) ([3]; after 12 weeks of tolebrutinib): 0.37 (0.99) | Patients with no new Gd-enhancing T1 lesions ([3]; after 12 weeks of tolebrutinib treatment): 83.3% | Gd+ lesion count, mean (SD) [3, 9]: 0.31 (0.70) | Gd+ lesion count, mean (SD) ([3]; after 12 weeks of tolebrutinib): 0.20 (0.56) | Number of new T1 non-enhancing (hypointense) lesions, Mean (SD) ([4]; 5/60 mg, Week 0): 0.23 (0.43) | Number of new T1 non-enhancing (hypointense) lesions, Median ([4]; 5/60 mg, Week 0): 0.00 | Number of new T1 non-enhancing (hypointense) lesions, Mean (SD) ([4]; 5/60 mg, Week 12): 0.19 (0.60) | Number of new T1 non-enhancing (hypointense) lesions, Median ([4]; 5/60 mg, Week 12): 0.00 | Number of new T1 non-enhancing (hypointense) lesions, Mean (SD) ([4]; 15/60 mg, Week 0): 0.61 (1.45) | Number of new T1 non-enhancing (hypointense) lesions, Median ([4]; 15/60 mg, Week 0): 0.00 | Number of new T1 non-enhancing (hypointense) lesions, Mean (SD) ([4]; 15/60 mg, Week 12): 0.26 (0.73) | Number of new T1 non-enhancing (hypointense) lesions, Median ([4]; 15/60 mg, Week 12): 0.00 | Number of new T1 non-enhancing (hypointense) lesions, Mean (SD) ([4]; 30/60 mg, Week 0): 0.31 (1.09) | Number of new T1 non-enhancing (hypointense) lesions, Median ([4]; 30/60 mg, Week 0): 0.00 | Number of new T1 non-enhancing (hypointense) lesions, Mean (SD) ([4]; 30/60 mg, Week 12): 0.09 (0.39) | Number of new T1 non-enhancing (hypointense) lesions, Median ([4]; 30/60 mg, Week 12): 0.00 | Number of new T1 non-enhancing (hypointense) lesions, Mean (SD) ([4]; 60/60 mg, Week 0): 0.06 (0.36) | Number of new T1 non-enhancing (hypointense) lesions, Median ([4]; 60/60 mg, Week 0): 0.00 | Number of new T1 non-enhancing (hypointense) lesions, Mean (SD) ([4]; 60/60 mg, Week 12): 0.03 (0.18) | Number of new T1 non-enhancing (hypointense) lesions, Median ([4]; 60/60 mg, Week 12): 0.00 | Number of new T1 non-enhancing (hypointense) lesions, Mean (SD) ([4]; All (N = 125), Week 0): 0.30 (0.96) | Number of new T1 non-enhancing (hypointense) lesions, Median ([4]; All (N = 125), Week 0): 0.00 | Number of new T1 non-enhancing (hypointense) lesions, Mean (SD) ([4]; All (N = 125), Week 12): 0.14 (0.52) | Number of new T1 non-enhancing (hypointense) lesions, Median ([4]; All (N = 125), Week 12): 0.00 | Course of the elevation of liver enzymes after discontinuation (patients with RMS): reversible | Drug-induced liver injury (patients with RMS): identified
